The values below come from patent US7985740B2, “Purine derivatives as agonists of the adenosine A2A receptor” (Glaxo Group Limited, priority 2005, dated 2011).

A value given as a limit tells only on which side of the number the result lay.

For data set [1] the following is noted: linear conversion of literature % PPB; cited from earlier work.
For data set [2], the target named is T1, Human Serum Albumin (HSA) (Homo sapiens, UniProt P02768).
T1 construct: purchased Chromtech (Cheshire, UK)
The experiment in a line: Human serum albumin (HSA) binding, immobilised HSA HPLC column. To be noted: for % HSA measured / logK measured: HSA column; for logK measured: derived from the calibration curve; for logtR: logarithm of typical retention time on the HSA column; for tR: typical retention time on the HSA column. The data set is classed as in vitro ADME. Here is the method: Instrument: Agilent HP1100 HPLC instruments were used throughout.
HPLC columns: Chromtech Immobilised HSA HPLC column 50×3 mm was purchased from Chromtech (Cheshire, UK).
Mobile phase and detection: The mobile phase A was 50 mM pH 7.4 ammonium acetate solution, while mobile phase B was 2-Propanol (HPLC grade, Runcorn, UK). The mobile phase flow rate was 1.8 ml/min. The column temperature was kept at 30° C. The gradient profile and run time were the same with each column, the linear gradient from 0 to 30% 2-propanol was applied from 0 to 3 minutes. From 3 to 5 minutes, the mobile phase composition was constant 30% 2-propanol and 70% 50-mM ammonium acetate. From 5 min to 5.2 min the mobile phase composition was change to 100% ammonium acetate buffer only and remained the same until the end of the run. Each separation was stopped after 6 minutes. The column temperature was kept at 30° C.
Detection: Chromatograms were recorded at 230 and 254 nm by a diode array UV absorption detector at room temperature.

The next data set concerns neutrophilia. The experiment in a line: Inhibition of LPS-induced lung neutrophilia in rats, intratracheal dosing. The following applies: rat, retested at 30 ug/kg, similar method. The data set is classed as in vivo. Here is the method: Rats are lightly anaesthetized (isofluorane in oxygen) and vehicle or test substance administered intratracheally using a cannula placed trans-orally (200 μl). Following intratracheal administration, rats are returned to their cages and allowed free access to both food and water. Thirty min later, rats are placed in a perspex box and exposed to aerosolized lipopolysaccharide (LPS) (0.15 mg/ml, serotype 0127:B8) for 15 min (Devilbiss nebuliser) at a flow rate of 15 ml/min. Animals are killed 4 h later with pentobarbital (250 mg/kg i.p.). The lungs are lavaged using 3 aliquots (5 ml) of phosphate-buffered saline (Sigma catalogue no. P3813, pH 7.4) containing heparin (10 units/ml); recovered cells are pooled (pooled volume of recovered fluid will be recorded) and centrifuged (1300 rpm for 7 min). The supernatant is removed by aspiration and the cell pellet resuspended in 1 ml phosphate-buffered saline. Total cells are counted (Sysmex Microcell Counter F-500, TOA Medical Electronics Ltd., Japan). Smears are made by diluting recovered fluid (to approximately 10^6 cells/ml) and spinning an aliquot (100 μl) in a centrifuge (Cytospin, Shandon, UK). […] A total of 300 cells per smear are counted by light microscopy under oil immersion (×1000).

Data set [3] deals with T2, human adenosine A3 receptor (Homo sapiens, UniProt P0DMS8).
T2 construct: expressed in transfected cells
T2 sequence (P0DMS8 1-318): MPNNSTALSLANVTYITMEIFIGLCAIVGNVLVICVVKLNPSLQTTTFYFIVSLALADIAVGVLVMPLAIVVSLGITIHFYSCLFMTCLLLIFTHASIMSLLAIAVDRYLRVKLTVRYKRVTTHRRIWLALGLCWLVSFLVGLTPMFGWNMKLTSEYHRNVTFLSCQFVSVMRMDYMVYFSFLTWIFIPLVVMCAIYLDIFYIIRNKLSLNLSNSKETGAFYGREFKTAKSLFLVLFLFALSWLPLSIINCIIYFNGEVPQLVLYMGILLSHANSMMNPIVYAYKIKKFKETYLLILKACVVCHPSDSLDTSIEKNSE
As to the kind of experiment: Agonist activity at human adenosine A3 receptor, CHO cells with cAMP response element SPAP reporter. Type of data set: cell-based. To be noted: forskolin enhanced cAMP. Here is the method:
The adenosine A3 agonist potency of compounds are determined using Chinese Hamster ovary cells stably expressing the human adenosine A3 receptor and the cAMP response element SPAP (secreted placental alkaline phosphatase). Increasing the level of cAMP in theses cell causes an increase in the transcription of the SPAP reporter gene, which can be quantified by addition of a colour substrate to measure a coloured product. The adenosine A3 receptor is Gi linked so levels cAMP have to be enhanced by forskolin in these cells. Activation of the adenosine A3 receptor is determined by the reduction of forskolin enhanced cAMP, which is measured as a decrease in the coloured product. The Adenosine A3 activity of the test compounds is expressed as a ratio to that of the non-selective adenosine receptor agonist, N-ethyl carboxamide adenosine (NECA).

T1 sequence (P02768 25-609): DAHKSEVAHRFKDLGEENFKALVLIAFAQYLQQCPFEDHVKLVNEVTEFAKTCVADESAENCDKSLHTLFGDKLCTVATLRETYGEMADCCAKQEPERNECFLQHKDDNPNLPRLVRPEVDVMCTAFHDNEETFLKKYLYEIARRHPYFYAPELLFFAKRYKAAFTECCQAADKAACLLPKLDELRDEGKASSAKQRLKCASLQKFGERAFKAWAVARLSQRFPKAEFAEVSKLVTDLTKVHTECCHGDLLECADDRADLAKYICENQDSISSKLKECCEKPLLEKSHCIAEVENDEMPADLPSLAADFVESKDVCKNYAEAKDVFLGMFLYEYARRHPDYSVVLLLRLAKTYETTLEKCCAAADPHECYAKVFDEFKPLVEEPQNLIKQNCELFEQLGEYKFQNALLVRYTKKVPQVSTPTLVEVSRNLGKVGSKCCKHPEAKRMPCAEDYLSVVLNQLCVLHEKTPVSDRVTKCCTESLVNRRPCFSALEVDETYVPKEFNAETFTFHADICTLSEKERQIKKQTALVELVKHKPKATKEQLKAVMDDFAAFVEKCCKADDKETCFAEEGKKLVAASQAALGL

As to `O=C1CN=C(c2ccccn2)c2cc(Br)ccc2N1` [Bromazepam], in data set [1], the “lit logK” value was 0.17. In addition, the “% HSA measured” value in data set [2] (pH 7.4) turned out to be 74.7%. In data set [2], this molecule registered a logK measured of 0.45, a logtR of 0.06 and a tR of 1.16.
On to `CCCC1O[C@@H]2C[C@H]3[C@@H]4CCC5=CC(=O)C=C[C@]5(C)[C@H]4[C@@H](O)C[C@]3(C)[C@]2(C(=O)CO)O1` (stereo partly drawn) [Budesonide], for which the “lit logK” value in data set [1] is recorded as 0.83. Moreover, the “% HSA measured” value in data set [2] (pH 7.4) turned out to be 85.6%. In data set [2], this molecule gave a logK measured of 0.75, a logtR of 0.20 and a tR of 1.6.
In the case of `NC(=O)N1c2ccccc2C=Cc2ccccc21` [Carbamazepine], the “lit logK” value in data set [1] is reported as 0.46. Besides, in data set [2] (pH 7.4), the “% HSA measured” value is listed as 80.5%. Further, in data set [2], the logK measured is listed as 0.59, the logtR was 0.13 and the tR came to 1.35.
Take `O=C(O)Cc1ccccc1Nc1c(Cl)cccc1Cl` [Diclofenac]: the “lit logK” value in data set [1] was 1.92.
Regarding `CCn1nnc([C@H]2O[C@@H](n3cnc4c(N[C@H]5CC[C@H](Nc6nc(NCCCCN7CCCC7)nc7[nH]cnc67)CC5)nc(NCCCCN5CCCC5)nc43)[C@H](O)[C@@H]2O)n1` [Example 4, (2R,3S,4R,5R)-2-(2-ethyl-2H-tetrazol-5-yl)-5-[2-{[4-(1-pyrrolidinyl)butyl]amino}-6-({trans-4-[(2-{[4-(1-pyrrolidinyl)butyl]amino}-1H-purin-6-yl)amino]cyclohexyl}amino)-9H-purin-9-yl]tetrahydro-3,4-furandiol, triformate], the inhibition of neutrophilia with neutrophilia was greater than 50%.
For `CCn1nnc(C2OC(n3cnc4c(NC5CCC(Nc6ccnc(NCCc7nc[nH]c7C)n6)CC5)nc(NCCc5nc[nH]c5C)nc43)C(O)C2O)n1.O=CO.O=CO` [Example 8, (2R,3S,4R,5R)-2-(2-ethyl-2H-tetrazol-5-yl)-5-[2-{[2-(5-methyl-1H-imidazol-4-yl)ethyl]amino}-6-({trans-4-[(2-{[2-(5-methyl-1H-imidazol-4-yl)ethyl]amino}-4-pyrimidinyl)amino]cyclohexyl}-amino)-9H-purin-9-yl]tetrahydro-3,4-furandiol, diformate], the “Adenosine A3 agonist activity” value in data set [3] is “functionally inactive over the concentration range of the assay”. Further, the HSA binding result in data set [2] (pH 7.4) is given as “greater than 90%”.
For the molecule `CCn1nnc([C@H]2O[C@@H](n3cnc4c(N[C@H]5CC[C@H](Nc6ccnc(N[C@H]7CC[C@H](N)CC7)n6)CC5)nc(N[C@H]5CC[C@H](N)CC5)nc43)[C@@H](O)[C@H]2O)n1.O=CO.O=CO.O=CO` [Example 10, (2R,3S,4R,5R)-2-(2-[(trans-4-aminocyclohexyl)amino]-6-{[trans-4-({2-[(trans-4-aminocyclohexyl)amino]-4-pyrimidinyl}amino)cyclohexyl]-amino}-9H-purin-9-yl)-5-(2-ethyl-2H-tetrazol-5-yl)tetrahydro-3,4-furandiol, triformate], the “Adenosine A3 agonist activity” value in data set [3] is “functionally inactive over the concentration range of the assay”.
As for `COC(=O)C1=C(C)NC(C)=C(C(=O)OCCN(C)Cc2ccccc2)C1c1cccc([N+](=O)[O-])c1` (stereo not drawn) [Nicardipine], the “% HSA measured” value in data set [2] (pH 7.4) worked out at 95.0%. In data set [2], this molecule gave a logK measured of 1.22, a logtR of 0.43 and a tR of 2.7.
For the molecule `CNC(=C[N+](=O)[O-])NCCSCc1csc(CN(C)C)n1` [Nizatidine], in data set [1], the “lit logK” value was −0.28. In addition, the “% HSA measured” value in data set [2] (pH 7.4) came to 24.6%. Moreover, in data set [2], the logK measured was −0.49 and the tR is reported as 0.40.
In the case of `CN1C(C(=O)Nc2ccccn2)=C(O)c2ccccc2S1(=O)=O` [Piroxicam], the “lit logK” value in data set [1] is 1.16. In data set [2] (pH 7.4), the “% HSA measured” value was determined as 96.6%. Further, in data set [2], the logK measured worked out at 1.34, the logtR is 0.49 and the tR came to 3.1.
